# Experimental data published in US6825200B1, “Substituted dipeptides having nos inhibiting activity” (Fujisawa Pharmaceutical Co., Ltd., priority 1999, dated 2004).
# Tested on: production of nitric oxide in murine macrophage cell line RAW264.7
# Experiment: Assay for inhibitory activity on the production of nitric oxide (Griess reagent, LPS/INF γ-activated RAW264.7 cells)
# Format: cell-based
# Details: Mus musculus; test compound 10^−6 M; RAW264.7 cells activated with LPS (1 μg/ml) and INF γ (3 u/ml) for 18-24 hours; NO2^− by Griess reagent
# Description: Test 1: Assay for Inhibitory Activity on the Production of Nitric Oxide The murine macrophage cell line RAW264.7 (American Type Culture Collection, No. TIB71) was used in this study. RAW264.7 cells were grown on […] plastic culture flasks at 37° C., 5% in Dulbecco's modified Eagle's medium (DMEM) supplemented with L-glutamine, penicillin, streptomycin and 10% heat-inactivated fetal bovine serum. They were removed from culture flasks by rubber cell scraper and were centrifuged and resuspended in DMEM without phenol red. They were plated in 96-well microtiter plates (10^5 cells per well) and allowed to adhere over 2 hours. The test samples were added and the cells were preincubated for 1 hour. Thereafter the cells were activated with both of lipopolysaccharide (LPS) (1 μg/ml) and interferon γ (INF γ) (3 u/ml) for 18-24 hours. An equal volume of Griess reagent (1% sulfanilamide/0.1% N-naphthylethylenediamine dihydrochloride/2.5% H3PO4) was added and the cells were incubated at room temperature for 10 minutes. The absorbance was read at 570 nm using microplate reader and NO2^- was measured using NaNO2 as a standard.
row,Compound,inhibition at 1 µM
1,"COc1ccc(N2CCN(C(=O)CNC(=O)[C@H](Cc3ccccn3)NC(=O)c3cc4cc(Cl)ccc4o3)CC2)cc1 [Compound (f), 5-Chloro-N-[(1S)-2-[[2-[4-(4-methoxyphenyl)-1-piperazinyl]-2-oxoethyl]amino]-2-oxo-1-(2-pyridylmethyl)ethyl]-1-benzofuran-2-carboxamide]",100%
2,"O=C(N[C@@H](Cc1ccccn1)C(=O)NCC(=O)N1CCN(c2ccc(Cl)cc2)CC1)c1cc2cc(Cl)ccc2o1 [Compound (a), 5-Chloro-N-[(1S)-2-[[2-[4-(4-chlorophenyl)-1-piperazinyl]-2-oxoethyl]amino]-2-oxo-1-(2-pyridylmethyl)ethyl]-1-benzofuran-2-carboxamide]",100%
3,"C[C@H]1CN(c2ccccc2)CCN1C(=O)CNC(=O)[C@H](Cc1ccccn1)NC(=O)/C=C/c1ccc(Cl)cc1 [Compound (b), (2E)-3-(4-Chlorophenyl)-N-[(1S)-2-[[2-((2S)-2-methyl-4-phenyl-1-piperazinyl)-2-oxoethyl]amino]-2-oxo-1-(2-pyridylmethyl)ethyl]-2-propenamide]",100%
4,"Cc1ccc(N2C[C@@H](C)N(C(=O)CNC(=O)[C@H](Cc3ccccn3)NC(=O)/C=C/c3ccc(Cl)cc3)[C@@H](C)C2)cc1 [Compound (c), (2E)-3-(4-Chlorophenyl)-N-[(1S)-2-[[2-[(2R,6S)-2,6-dimethyl-4-(4-methylphenyl)-1-piperazinyl]-2-oxoethyl]amino]-2-oxo-1-(2-pyridylmethyl)ethyl]-2-propenamide]",100%
5,"O=C(/C=C/c1ccc(Cl)cc1)N[C@@H](Cc1ccccn1)C(=O)NCC(=O)N1CCN(c2ccc(C(F)(F)F)cc2)CC1 [Compound (e), (2E)-3-(4-Chlorophenyl)-N-[(1S)-2-oxo-2-[[2-oxo-2-[4-(4-trifluoromethylphenyl)-1-piperazinyl]ethyl]amino]-1-(2-pyridylmethyl)ethyl]-2-propenamide]",99%
6,"O=C(/C=C/c1ccc(Cl)cc1)N[C@@H](Cc1ccccn1)C(=O)NCC(=O)N1CCN(CCC(F)(F)F)CC1 [Compound (d), (2E)-3-(4-Chlorophenyl)-N-[(1S)-2-oxo-2-[[2-oxo-2-[4-(3,3,3-trifluoropropyl)-1-piperazinyl]ethyl]amino]-1-(2-pyridylmethyl)ethyl]-2-propenamide]",100%

# Tested on: not given
# Experiment: not given
# Details: not given
row,melting point,Compound
1,75 to 85 °C,"O=C(N[C@@H](Cc1ccccn1)C(=O)NCC(=O)N1CCN(c2cccs2)CC1)c1cc2cc(Cl)ccc2o1 [Example 18, 5-Chloro-N-[(1S)-2-oxo-2-[[2-oxo-2-[4-(2-thienyl)-1-piperazinyl]ethyl]amino]-1-(2-pyridylmethyl)ethyl]-1-benzofuran-2-carboxamide]"
2,115 to 120 °C,"O=C(N[C@@H](Cc1ccccn1)C(=O)NCC(=O)N1CCN(c2ccccc2)C[C@H]1CO)c1cc2cc(Cl)ccc2o1 [Example 26, 5-Chloro-N-[(1S)-2-[[2-[(2S)-2-(hydroxymethyl)-4-phenyl-1-piperazinyl]-2-oxoethyl]amino]-2-oxo-1-(2-pyridylmethyl)ethyl]-1-benzofuran-2-carboxamide]"
3,179 to 181 °C,"C[C@H](NC(=O)[C@H](Cc1ccccn1)NC(=O)/C=C/c1ccc(Cl)cc1)C(=O)N1CCN(c2ccc(Cl)cc2)CC1 [Example 23, (2E)-3-(4-Chlorophenyl)-N-[(1S)-2-[[(1S)-2-[4-(4-chlorophenyl)-1-piperazinyl]-1-methyl-2-oxoethyl]amino]-2-oxo-1-(2-pyridylmethyl)ethyl]-2-propenamide]"
4,152 to 155 °C,"C[C@H](NC(=O)[C@H](Cc1ccccn1)NC(=O)c1cc2cc(Cl)ccc2o1)C(=O)N1CCN(c2ccc(Cl)cc2)CC1 [Example 22, 5-Chloro-N-[(1S)-2-[[(1S)-2-[4-(4-chlorophenyl)-1-piperazinyl]-1-methyl-2-oxoethyl]amino]-2-oxo-1-(2-pyridyl-methyl)ethyl]-1-benzofuran-2-carboxamide]"
5,95 to 100 °C,"COC[C@@H]1CN(c2ccccc2)CCN1C(=O)CNC(=O)[C@H](Cc1ccccn1)NC(=O)c1cc2cc(Cl)ccc2o1 [Example 25, 5-Chloro-N-[(1S)-2-[[2-[(2S)-2-(methoxymethyl)-4-phenyl-1-piperazinyl]-2-oxoethyl]amino]-2-oxo-1-(2-pyridylmethyl)ethyl]-1-benzofuran-2-carboxamide]"
